Several values for one entry are separate records, joined by “and”; a condition that tells them apart may be missing. Equal entries are not always repeated.
Test system: thromboxane analog U46619 induced PAH in minipigs
Experiment: Haemodynamics (PAP, BP) in the anesthetized thromboxane challenged PAH minipig after inhaled (nebulized) application (C-2.1)
Type: in vivo, Göttingen minipig
Details: inhaled; for PAP % changes vs prevalue, mean: n = 3; for BP % change vs. baseline / PAP % change vs. baseline: individual animals
Summary of the method: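 Anesthetized, ventilated Göttingen minipigs (2-6 kg) given continuous infusion (0.3-0.75 μg/kg/min) to raise mean PAP above 25 mmHg, dosing starting after a 30 min plateau. Compound in 1% DMSO/0.2% citric acid, pH 8, nebulized via Aeroneb Pro into the inspiratory arm (~7 min; stock 300 μg/kg). PAP by Swan-Ganz catheter, BP via carotid catheter.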

[1] = 100 μg/kg nominal dose, time 80 min
[2] = 100 μg/kg nominal dose, time 90 min
[3] = 100 μg/kg nominal dose, time 100 min
[4] = 100 μg/kg nominal dose, time 110 min
[5] = 100 μg/kg nominal dose, time 120 min
[6] = 100 μg/kg nominal dose, time 130 min
[7] = 100 μg/kg nominal dose, time 140 min
[8] = 100 μg/kg nominal dose, time 150 min
[9] = 100 μg/kg nominal dose, time 160 min
[10] = 100 μg/kg nominal dose, time 170 min
[11] = 100 μg/kg nominal dose, time 180 min

With `O=C(O)c1ccc(CCN(CCc2ccccc2OCc2ccc(-c3ccc(C(F)(F)F)cc3)cc2Cl)[C@H]2CCCc3nc(C(=O)O)ccc32)cc1` [comparative example 11, (5S)-5-{[2-(4-carboxyphenyl)ethyl][2-(2-{[3-chloro-4′-(trifluoromethyl)[biphenyl]-4-yl]methoxy}phenyl)ethyl]amino}-5,6,7,8-tetrahydroquinoline-2-carboxylic acid] the “PAP % changes vs prevalue, mean” value (10 μg/kg nominal dose, time 0 min) was 0%, the “PAP % changes vs prevalue, mean” value (10 μg/kg nominal dose, time 10 min) was 0.6% and the “PAP % changes vs prevalue, mean” value (10 μg/kg nominal dose, time 20 min) was 0.2%. For the same molecule, the “PAP % changes vs prevalue, mean” value (10 μg/kg nominal dose, time 30 min) was −0.7%, the “PAP % changes vs prevalue, mean” value (10 μg/kg nominal dose, time 40 min) was −1.5% and the “PAP % changes vs prevalue, mean” value (10 μg/kg nominal dose, time 50 min) was −2.3%. The “PAP % changes vs prevalue, mean” value (10 μg/kg nominal dose, time 60 min) was −3.5%, the “PAP % changes vs prevalue, mean” value (10 μg/kg nominal dose, time 70 min) was −4.2% and the “PAP % changes vs prevalue, mean” value (10 μg/kg nominal dose, time 80 min) was −3.7%. The “PAP % changes vs prevalue, mean” value (10 μg/kg nominal dose, time 90 min) was −4.3%, the “PAP % changes vs prevalue, mean” value (10 μg/kg nominal dose, time 100 min) was −5.3% and the “PAP % changes vs prevalue, mean” value (10 μg/kg nominal dose, time 110 min) was −6.2%. For the same molecule, the “PAP % changes vs prevalue, mean” value (10 μg/kg nominal dose, time 120 min) was −6.7%, the “PAP % changes vs prevalue, mean” value (10 μg/kg nominal dose, time 130 min) was −6.2% and the “PAP % changes vs prevalue, mean” value (10 μg/kg nominal dose, time 140 min) was −7%. The “PAP % changes vs prevalue, mean” value (10 μg/kg nominal dose, time 150 min) was −7.6%, the “PAP % changes vs prevalue, mean” value (10 μg/kg nominal dose, time 160 min) was −7.6% and the “PAP % changes vs prevalue, mean” value (10 μg/kg nominal dose, time 170 min) was −8.2%. For the same molecule, the “PAP % changes vs prevalue, mean” value (10 μg/kg nominal dose, time 180 min) was −8.0%, the “PAP % changes vs prevalue, mean” value (10 μg/kg nominal dose, time 190 min) was −7.8% and the “PAP % changes vs prevalue, mean” value (10 μg/kg nominal dose, time 200 min) was −7.3%. For the same molecule, the “PAP % changes vs prevalue, mean” value (10 μg/kg nominal dose, time 210 min) was −7.5%, the “PAP % changes vs prevalue, mean” value (10 μg/kg nominal dose, time 220 min) was −7.2% and the “PAP % changes vs prevalue, mean” value (10 μg/kg nominal dose, time 230 min) was −7.2%. The “PAP % changes vs prevalue, mean” value (10 μg/kg nominal dose, time 240 min) was −7.6%, the “PAP % changes vs prevalue, mean” value (30 μg/kg nominal dose, time 0 min) was 0% and the “PAP % changes vs prevalue, mean” value (30 μg/kg nominal dose, time 10 min) was 0.3%. The “PAP % changes vs prevalue, mean” value (30 μg/kg nominal dose, time 20 min) was −2.0%, the “PAP % changes vs prevalue, mean” value (30 μg/kg nominal dose, time 30 min) was −4.6% and the “PAP % changes vs prevalue, mean” value (30 μg/kg nominal dose, time 40 min) was −7.8%. The “PAP % changes vs prevalue, mean” value (30 μg/kg nominal dose, time 50 min) was −9.8%, the “PAP % changes vs prevalue, mean” value (30 μg/kg nominal dose, time 60 min) was −11.8% and the “PAP % changes vs prevalue, mean” value (30 μg/kg nominal dose, time 70 min) was −14.1%. The “PAP % changes vs prevalue, mean” value (30 μg/kg nominal dose, time 80 min) was −14.2%, the “PAP % changes vs prevalue, mean” value (30 μg/kg nominal dose, time 90 min) was −14.4% and the “PAP % changes vs prevalue, mean” value (30 μg/kg nominal dose, time 100 min) was −14.8%. For the same molecule, the “PAP % changes vs prevalue, mean” value (30 μg/kg nominal dose, time 110 min) was −15.3%, the “PAP % changes vs prevalue, mean” value (30 μg/kg nominal dose, time 120 min) was −15.3% and the “PAP % changes vs prevalue, mean” value (30 μg/kg nominal dose, time 130 min) was −15.5%. The “PAP % changes vs prevalue, mean” value (30 μg/kg nominal dose, time 140 min) was −15.3%, the “PAP % changes vs prevalue, mean” value (30 μg/kg nominal dose, time 150 min) was −16.3% and the “PAP % changes vs prevalue, mean” value (30 μg/kg nominal dose, time 160 min) was −16.3%. The “PAP % changes vs prevalue, mean” value (30 μg/kg nominal dose, time 170 min) was −14.9%, the “PAP % changes vs prevalue, mean” value (30 μg/kg nominal dose, time 180 min) was −14.7% and the “PAP % changes vs prevalue, mean” value (30 μg/kg nominal dose, time 190 min) was −15.1%. The “PAP % changes vs prevalue, mean” value (30 μg/kg nominal dose, time 200 min) was −15.3%, the “PAP % changes vs prevalue, mean” value (30 μg/kg nominal dose, time 210 min) was −13.8% and the “PAP % changes vs prevalue, mean” value (30 μg/kg nominal dose, time 220 min) was −13.6%. The “PAP % changes vs prevalue, mean” value (30 μg/kg nominal dose, time 230 min) was −12.8%, the “PAP % changes vs prevalue, mean” value (30 μg/kg nominal dose, time 240 min) was −13.4% and the “PAP % changes vs prevalue, mean” value (100 μg/kg nominal dose, time 0 min) was 0%. The “PAP % changes vs prevalue, mean” value (100 μg/kg nominal dose, time 10 min) was −2.1%, the “PAP % changes vs prevalue, mean” value (100 μg/kg nominal dose, time 20 min) was −7.2% and the “PAP % changes vs prevalue, mean” value (100 μg/kg nominal dose, time 30 min) was −14.6%. The “PAP % changes vs prevalue, mean” value (100 μg/kg nominal dose, time 40 min) was −18.1%, the “PAP % changes vs prevalue, mean” value (100 μg/kg nominal dose, time 50 min) was −22.2% and the “PAP % changes vs prevalue, mean” value (100 μg/kg nominal dose, time 60 min) was −25.1%. The “PAP % changes vs prevalue, mean” value (100 μg/kg nominal dose, time 70 min) was −27.0%, the “BP % change vs. baseline” value [1] was 103.2% and 100.0% and 100.1% and the “PAP % change vs. baseline” value [1] was 103.3% and 100.0% and 98.5%. For the same molecule, the “PAP % changes vs prevalue, mean” value [1] was −27.9%, the “BP % change vs. baseline” value [2] was 98.8% and 98.2% and 100.1% and the “PAP % change vs. baseline” value [2] was 98.8% and 102.2% and 99.6%. The “PAP % changes vs prevalue, mean” value [2] was −28.9%, the “BP % change vs. baseline” value [3] was 101.0% and 100.0% and 100.1% and the “PAP % change vs. baseline” value [3] was 99.4% and 97.3% and 97.5%. For the same molecule, the “PAP % changes vs prevalue, mean” value [3] was −31.1%, the “BP % change vs. baseline” value [4] was 98.8% and 99.1% and 98.2% and the “PAP % change vs. baseline” value [4] was 94.0% and 90.4% and 94.4%. The “PAP % changes vs prevalue, mean” value [4] was −30.8%, the “BP % change vs. baseline” value [5] was 98.8% and 98.2% (2×) and the “PAP % change vs. baseline” value [5] was 87.4% and 80.2% and 88.8%. The “PAP % changes vs prevalue, mean” value [5] was −31.3%, the “BP % change vs. baseline” value [6] was 98.8% and 98.2% and 99.2% and the “PAP % change vs. baseline” value [6] was 84.3% and 75.6% and 86.1%. For the same molecule, the “PAP % changes vs prevalue, mean” value [6] was −31.2%, the “BP % change vs. baseline” value [7] was 98.8% and 96.5% and 102.0% and the “PAP % change vs. baseline” value [7] was 82.2% and 69.4% and 82.1%. The “PAP % changes vs prevalue, mean” value [7] was −31.6%, the “BP % change vs. baseline” value [8] was 97.7% and 95.6% and 103.0% and the “PAP % change vs. baseline” value [8] was 80.0% and 67.4% and 77.3%. The “PAP % changes vs prevalue, mean” value [8] was −31.1%, the “BP % change vs. baseline” value [9] was 98.8% and 93.9% and 101.1% and the “PAP % change vs. baseline” value [9] was 78.2% and 66.2% and 74.6%. The “PAP % changes vs prevalue, mean” value [9] was −30.1%, the “BP % change vs. baseline” value [10] was 98.8% and 95.6% and 99.2% and the “PAP % change vs. baseline” value [10] was 78.1% and 65.9% and 72.4%. The “PAP % changes vs prevalue, mean” value [10] was −31.1%, the “BP % change vs. baseline” value [11] was 97.7% and 92.1% and 99.2% and the “PAP % change vs. baseline” value [11] was 78.5% and 62.7% and 72.2%. The “PAP % changes vs prevalue, mean” value [11] was −31.1% and the “BP % change vs. baseline” value (100 μg/kg nominal dose, time 190 min) was 98.8% and 91.2% and 96.3%.
